Data from patent publication US20080076786A1, “USE OF RADICAL-SCAVENGING COMPOUNDS FOR TREATMENT AND PREVENTION OF NO-DEPENDENT MICROCIRCULATION DISORDERS” (priority 2001, published 2008).

Legend:
[1] = tested on: reoccurrence of myocardial infarcts (MI); settings: chronic application, published meta analysis; cited from earlier work
NO Synthetase = NO Synthetase knock-out mice, NO synthetase activity blocked or partially inhibited; assay type: in vivo; settings: NO Synthetase activity blocked or reduced; compared with pravastatin on elevating NO production
stroke risk = settings: ESPS-2, compared with low-dose aspirin / aspirin alone; cited from earlier work
[2] = tested on: oxygen radicals and proteinuria; settings: experimental animals with aminonucleoside nephropathy; cited from earlier work
lipid peroxidation = settings: human nonneoplastic lung tissue; cited from earlier work

Row | SMILES | reduction of the incidence of reoccurrence of myocardial infarcts [1] | effect of NO sparing (preventing NO destruction) (NO Synthetase) | reduction of stroke risk (stroke risk) | oxygen radicals and proteinuria [2] | lipid peroxidation (lipid peroxidation)
1 | CC(=O)Oc1ccccc1C(=O)O [Aspirin, acetyl salicylic acid] | 18% | – | – | – | –
2 | OCCN(CCO)c1nc(N2CCCCC2)c2nc(N(CCO)CCO)nc(N3CCCCC3)c2n1 [Dipyridamole, 2,6-bis(diethanolamino)-4,8-dipiperidino-pyrimido[5,4-d]pyrimidine] | – | seen as independent effect | as effective as low-dose aspirin | suppress oxygen radicals and proteinuria | Inhibition of lipid peroxidation
